Test: xn = mol fraction of the nth substance listed

Cc1ccccc1C + Cc1cccc(C)c1
viscosity [mPa·s], 101.3 kPa
Conditions	x1 = 0.0817	x1 = 0.1825	x1 = 0.2946	x1 = 0.4285	x1 = 0.5533	x1 = 0.6715	x1 = 0.7904	x1 = 0.9	x1 = 0.9001
298.15 K	0.5998	0.6144	0.6303	0.6512	0.6731	0.6924	0.7148	0.7349	–
303.15 K	0.5668	0.5783	0.5938	0.6119	0.631	0.6486	0.6675	–	0.6859

OCCOCCOCCO + CC(C)O
viscosity [mPa·s], 100 kPa
Conditions	x1 = 0.081	x1 = 0.1598	x1 = 0.2401	x1 = 0.3501	x1 = 0.44	x1 = 0.5601	x1 = 0.6501	x1 = 0.74	x1 = 0.8498	x1 = 0.9398
293.15 K	4.61	6.73	9.06	12.51	15.58	20.36	24.67	29.58	36.45	43.07
298.15 K	3.54	5.11	6.84	9.44	11.82	15.58	18.9	22.75	28.15	33.34
303.15 K	3.21	4.58	5.98	8.15	10.07	13.01	15.62	18.54	22.62	26.49
308.15 K	2.65	3.73	4.95	6.7	8.26	10.68	12.73	15.05	18.28	21.38
313.15 K	2.22	3.12	4.05	5.45	6.71	8.67	10.32	12.22	14.86	17.32
318.15 K	1.97	2.79	3.63	4.83	5.88	7.5	8.82	10.32	12.42	14.36
323.15 K	1.8	2.54	3.32	4.44	5.39	6.74	7.86	9.07	10.68	12.14

OCCOCCOCCO + CCOC(C)=O
101 kPa
Conditions	viscosity [mPa·s]
298.15 K, x2 = 0.1482	22.05
308.15 K, x2 = 0.0466	18.65

CCCCCCCCCCO + CCO
viscosity [mPa·s], 101 kPa
Conditions	298.15 K	308.15 K	318.15 K
x2 = 0.05	10.42	7.3	4.847
x2 = 0.1	9.841	7.003	4.436
x2 = 0.15	9.249	6.644	4.102
x2 = 0.2	8.648	6.24	3.83
x2 = 0.25	8.044	5.809	3.604
x2 = 0.3	7.442	5.364	3.409
x2 = 0.35	6.845	4.919	3.236
x2 = 0.4	6.259	4.484	3.073
x2 = 0.45	5.687	4.065	2.912
x2 = 0.5	5.133	3.671	2.747
x2 = 0.55	4.6	3.304	2.575
x2 = 0.6	4.09	2.967	2.391
x2 = 0.65	3.606	2.659	2.195
x2 = 0.7	3.15	2.378	1.989
x2 = 0.75	2.723	2.119	1.775
x2 = 0.8	2.326	1.876	1.558
x2 = 0.85	1.961	1.641	1.344
x2 = 0.9	1.627	1.402	1.141
x2 = 0.95	1.325	1.146	0.9601

NC(N)=O + CCO
viscosity [mPa·s], 101 kPa
Conditions	293.15 K	298.15 K	303.15 K	308.15 K	313.15 K	318.15 K	323.15 K
x1 = 0.02956	1.328	1.204	1.095	0.999	0.914	0.839	0.772
x1 = 0.03764	1.386	1.251	1.134	1.031	0.94	0.859	0.788
x1 = 0.04782	1.476	1.329	1.202	1.09	0.991	0.904	0.828

CCCCCC(=O)[O-].[NH3+]CCO + O
viscosity [mPa·s], 101 kPa
Conditions	x1 = 0.0053	x1 = 0.0114	x1 = 0.0176	x2 = 0.9074	x2 = 0.9364	x2 = 0.9583	x2 = 0.9753
293.15 K	1.44	1.692	1.82	12.85	6.672	3.858	2.546
298.15 K	1.26	1.5	1.68	10.73	5.73	3.306	2.04
303.15 K	1.11	1.35	1.494	9.048	4.92	2.868	1.806

CCCCCCCCCCO + CCC(C)=O
viscosity [mPa·s], 100 kPa
Conditions	x2 = 0.0798	x2 = 0.1601	x2 = 0.2392	x2 = 0.3498	x2 = 0.4401	x2 = 0.5602	x2 = 0.6496	x2 = 0.7411	x2 = 0.8502	x2 = 0.9406
293.15 K	11.4	8.94	7.3	5.65	4.57	3.24	2.34	1.68	1.01	0.6
303.15 K	7.99	6.34	4.92	3.65	2.75	2	1.52	1.11	0.74	0.49
313.15 K	5.31	4.24	3.39	2.42	1.88	1.39	1.1	0.82	0.58	0.4
323.15 K	3.95	3.23	2.64	1.93	1.52	1.13	0.87	0.66	0.48	0.36

CCCCCCCCCCCC + CCCCCCCCCC
298.15 K, 101.33 kPa
Conditions	viscosity [mPa·s]
x2 = 0.1071	1.294
x2 = 0.2012	1.243
x2 = 0.3014	1.198
x2 = 0.4079	1.146
x2 = 0.5077	1.092
x2 = 0.6096	1.036
x2 = 0.7085	0.9801
x2 = 0.8052	0.9488
x2 = 0.9045	0.9028

Source: the CheMixHub viscosity set
